What is called TGI is the concentration at which net growth stops. A low value points to greater sensitivity of the cells. As usually defined, the GI50 is the concentration giving 50% growth inhibition.

Consider 14 compounds from PubChem BioAssay (NCI).

What all share (assay): DTP human tumour cell line panel, 48 h
Experiment [1] concerns 786-0 renal.
Experiment [2] deals with A498 renal.
In experiment [3] the test system is A549 NSCLC.
The subject of experiment [4] is ACHN renal.
Experiment [5] deals with M14 melanoma.
For experiment [6], the system named is SNB-75 CNS.
Experiment [7] has as its system SR leukemia.
The subject of experiment [8] is TK-10 renal.
Experiment [9] relates to PC-3 prostate.
Experiment [10] concerns RPMI-8226 leukemia.

Values joined by “and” are separate entries in the source; they are usually repeats but may differ in a detail not shown here. Equal entries are not always repeated.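 Values below derive from 48-hour exposures of cells grown in 96-well plates, with endpoints linearly interpolated between the two concentrations bracketing the appropriate inhibition level. GI50: concentration for 50% inhibition of growth. TGI: concentration producing complete growth inhibition.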

With `O=C(Cc1nc2ccccc2s1)C(=O)Nc1cccc(C(F)(F)F)c1`, the concentration for total growth inhibition (TGI) in [1], in experiment [2], in [3], in [4], in [5] and in experiment [6] was more than 100 µM throughout. Further, the concentration for total growth inhibition (TGI) in experiment [7] and in [8] was more than 100 µM each time.

On to `Cc1c(-c2ccc(-c3ccccc3F)cc2)nc2ccc(F)cc2c1C(=O)O`, for which the GI50 in experiment [1] was 0.5 µM; in [3], 0.384 µM and 0.679 µM; in experiment [4], 0.617 µM and 1.67 µM; in experiment [5], 6.76 µM and 24.4 µM; in experiment [9], 0.27 µM and 0.75 µM; in [10], 0.811 µM. In addition, the GI50 is 36.7 µM and 81.6 µM in experiment [6]; 62.7 µM in experiment [8]. The total growth inhibition concentration (TGI) was 97.7 µM and 291 µM in experiment [1]; 181 µM and 647 µM in experiment [2]; 78 µM and 99.3 µM and 149 µM in [3]; 181 µM and 492 µM in [4]; 111 µM and 219 µM in experiment [5]; 103 µM and 429 µM in [9]. Moreover, the TGI in experiment [6] is 248 µM and 316 µM; in experiment [8] it was 208 µM and 471 µM.

With `C[C@]12CC[C@H](OC(=O)Nc3ccccc3)CC1=CC[C@@H]1C2CC[C@]2(C)/C(=N/OC(=O)Nc3ccccc3)CCC12` (stereo partly specified), the total growth inhibition concentration (TGI) in experiment [1], in [2], in [3], in experiment [4], in [5] and in [10] was more than 100 µM in each case. Moreover, the TGI in experiment [6] and in experiment [8] was more than 100 µM each time.

Consider `O=C1N=C2N=C(c3ccc(Cl)cc3)N(c3ccc(Cl)cc3)N2Sc2ccccc21`, for which the concentration for total growth inhibition (TGI) in experiment [1], in [2], in experiment [3], in experiment [4], in experiment [5] and in [10] was more than 100 µM throughout. For the same compound, the TGI in [6] and in experiment [8] was more than 100 µM in each case.

Consider `O=C(Nc1ccccc1)N1C(c2ccccc2)=N[C@@H](c2ccccc2)[C@@H]1c1ccccc1`, for which the concentration for total growth inhibition (TGI) in experiment [1] stood at 34.7 µM; in experiment [2], 35.8 µM; in experiment [3], 52 µM; in experiment [4] it was 31.4 µM; in [5], 28.2 µM; in experiment [10], 61.3 µM. Further, the TGI is 53.5 µM in experiment [6], 40.4 µM in [7] and 76.1 µM in experiment [8].

Consider `C/C(=C\c1ccccc1)C(=O)c1c(C)cc(C)cc1C`, for which the TGI in experiment [1], in [3], in experiment [4], in experiment [5], in experiment [10] and in experiment [6] was more than 100 µM throughout. Moreover, the TGI in [7] and in experiment [8] was more than 100 µM in each case.

For `C[C@@H]1CC2(C[C@@H](C)C3[C@@H](CC4(C)CCCC5C6=CC(O)(CC[C@]34C)OC6=CC(=O)OC5(C)C)O2)OC1=O` (stereo partly specified), the TGI in experiment [1], in experiment [3], in experiment [4], in [5], in experiment [10] and in experiment [6] was more than 100 µM each time. Also, the total growth inhibition concentration (TGI) in [7] and in experiment [8] was more than 100 µM each time.

As to `O=C(O)C1CC2C=CCC(C2)C1` (stereo unspecified), the TGI in experiment [1], in experiment [3], in experiment [4], in experiment [5], in experiment [10] and in experiment [6] was more than 100 µM in each case. Further, the total growth inhibition concentration (TGI) in experiment [7] and in experiment [8] was more than 100 µM throughout.

Turning to `C=C1C(=O)O[C@@H]2C[C@@H](C)[C@@H]3C=CC(=O)[C@@]3(C)[C@@H](OC(=O)CCCC(=O)O[C@H]3[C@@H]4C(=C)C(=O)O[C@@H]4C[C@@H](C)[C@@H]4C=CC(=O)[C@]43C)[C@H]12`, the total growth inhibition concentration (TGI) in experiment [1] worked out at 0.0448 µM; in experiment [2] it was 0.546 µM; in [3] it was 6.09 µM; in experiment [4], 0.11 µM; in experiment [5] it was 0.0584 µM; in experiment [9], 0.299 µM. Further, the figures for the TGI in [6] and in [8] were 0.482 µM and 0.296 µM, respectively.

For the compound `CCOC(=O)c1sc(NC(=O)COc2ccc(/C=C3\CCc4cc(OC)ccc4C3=O)cc2)nc1C`, the GI50 in experiment [1] is 11.5 µM; in [2] it was 13.2 µM; in experiment [3], 13.1 µM; in experiment [4], 13.8 µM; in experiment [5], 13.3 µM; in experiment [9], 10.2 µM. Also, the GI50 in experiment [10] is 0.684 µM; in experiment [6], 6.73 µM; in experiment [8], 3.34 µM. Further, the total growth inhibition concentration (TGI) in experiment [1] is 24.7 µM; in experiment [2], 30.1 µM; in experiment [3], 35.8 µM; in experiment [4], 32.5 µM; in experiment [5] it was 26.2 µM; in experiment [9], more than 57.3 µM. The TGI in experiment [10] is 6.64 µM; in [6], 24.3 µM; in [8], 21.4 µM.

Consider `COc1cccc(C=NC23CC4CC(CC(C4)C2)C3)c1`, for which the concentration for total growth inhibition (TGI) in experiment [1], in experiment [2], in [3], in experiment [4], in [5] and in experiment [10] was more than 100 µM in each case. Also, the TGI in experiment [6], in [7] and in [8] was more than 100 µM in each case.

With `c1ccc(N2CCN(CCN3CCc4c([nH]c5ccccc45)C3c3cccnc3)CC2)cc1` (stereo unspecified), the concentration for total growth inhibition (TGI) in experiment [1], in experiment [2], in experiment [3], in [4], in experiment [5] and in [10] was more than 100 µM in each case. Moreover, the total growth inhibition concentration (TGI) was 9.7 µM in [6], more than 100 µM in experiment [7] and more than 100 µM in experiment [8].

In the case of `CNC(=O)NCCCCC(NC(C)=O)C(=O)NCc1ccccc1` (stereo unspecified), the TGI in [1], in [2], in experiment [3], in experiment [4], in [5] and in experiment [10] was more than 100 µM in each case. In addition, the total growth inhibition concentration (TGI) in experiment [6] and in experiment [8] was more than 100 µM throughout.

For `Nc1ccc(C(=O)N/C(=C\c2ccc3c(c2)OCO3)c2nc3ccccc3s2)cc1`, the TGI is 23.7 µM in experiment [1]; 31 µM in experiment [3]; 27.2 µM in [4]; 23.9 µM in experiment [5]; 53.4 µM in [7]; 34 µM in experiment [8].
